The text below walks through data of US20130096123A1, “RADIATION SENSITISER COMPOSITIONS” (EUPHARMA PTY LTD, priority 2010, published 2013).

Broadly, the pKa is the negative logarithm of the acid dissociation constant. The term solubility denotes how much of the substance goes into solution per volume. A low value points to little dissolved substance.

The conditions of data set [1]: cited from earlier work.
Another data set is described as follows: physchem. The data set is classed as physicochemical. The procedure: A large number of these exist but in this formulation Hydroxypropyl beta Cyclodextrin (HPbCD) is used. HPbCD also assists masking the taste of the drug.
A solubility increase of above 10 fold is achieved and the room temperature solubility of nimorazole may be increased to the more dose convenient level of 100 mg/ml.
HPbCD complexes with nimorazole over a wide molar ratio, in this example the lower ratio of […] is used, therefore 226 g of nimorazole is used with 1400 g of HPbCD.

Values after ≈ are worked out from the molar mass of the structure shown.

In the case of `O=[N+]([O-])c1cncn1CCN1CCOCC1` [Nimorazole, nimorazole], the pKa in data set [1] is 5.2. In addition, the solubility increase entry in “physchem” was “above 10 fold”. The solubility in “physchem” (aqueous with cosolvent or surfactant or cyclodextrin) turned out to be 100 mg/mL (≈ 442 mM).
